{"source": "patent US8257700B2", "about": "“Proteomic analysis of active multiple sclerosis lesions” (The Board of Trustees of the Leland Stanford Junior …, priority 2008, dated 2012)", "key": {"[1]": {"system": "rheumatoid arthritis", "details": "cited from earlier work"}, "[2]": {"system": "MS relapses and active EAE", "details": "during MS relapses and active EAE; cited from earlier work"}, "[3]": {"biological_target": "T1, PAR-1 (Homo sapiens, UniProt P25116)", "T1 sequence (P25116 22-425)": "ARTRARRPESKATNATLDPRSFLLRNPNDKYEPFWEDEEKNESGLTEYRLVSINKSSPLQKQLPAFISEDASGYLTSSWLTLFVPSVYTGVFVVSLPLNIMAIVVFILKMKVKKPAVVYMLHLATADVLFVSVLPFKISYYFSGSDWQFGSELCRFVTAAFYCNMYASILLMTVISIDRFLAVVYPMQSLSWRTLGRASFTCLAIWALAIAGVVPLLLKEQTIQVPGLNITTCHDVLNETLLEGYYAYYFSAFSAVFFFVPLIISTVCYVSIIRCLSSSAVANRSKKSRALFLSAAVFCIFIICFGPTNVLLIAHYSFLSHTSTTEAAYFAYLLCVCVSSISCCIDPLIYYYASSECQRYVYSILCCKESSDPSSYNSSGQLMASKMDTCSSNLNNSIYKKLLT", "details": "cited from earlier work"}, "[4]": {"system": "aPTT", "details": "cited from earlier work; for aPTT (relative activity): relative to aPC-WT"}, "[5]": {"system": "EAE mice", "experiment": "EAE induced with PLP139-151 in SJL/J mice, daily clinical score", "assay_type": "in vivo, mouse (SJL/J)", "details": "for clinical status (mean clinical score), time of amelioration: recombinant human aPC variants 0.46 mg/kg daily i.v. from maximal paralysis until day 30, vs PBS", "experimental": "EAE induction, treatment with hirudin, aPC (WT and mutants), proliferation assays, cytokine analysis and quantitative histopathology. Mice were maintained in the Research Animal Facility at Stanford University. EAE was induced in 7-8 week old SJL/J female mice by subcutaneous immunization with 100 μg PLP139-151 in emulsion. For hirudin or aPC treatment, EAE mice (n=10/group) were treated with daily intravenous injection of hirudin (10 mg/kg) or mouse recombinant aPC-WT (0.2 mg/kg) at the peak of disease and compared with PBS treated group. Mice were assessed daily for clinical signs of EAE and scored according to: 0, no clinical disease; 1, tail weakness; 2, hindlimb weakness; 3, complete hindlimb paralysis; 4, hindlimb paralysis and some forelimb weakness; 5, moribund or dead.\nRecombinant human aPC-WT and mutants (aPC-L8W and aPC-K193E) were prepared as described by Grinnell et al (2007) Critical Care Medicine (suppl). These aPC variants have the following properties on aPTT and PAR-1 signaling function: aPC-WT: aPTT (relative activity)=1, PAR-1 (relative activity)=1, aPC-L8W: aPTT=1, PAR-1=0.02 and aPC-K193E: aPTT=0.03, PAR-1=1. EAE mice (n=7/group) were treated with daily intravenous injection of recombinant human aPC-WT, aPC-L8W, aPC-K193E (0.46 mg/kg) or PBS (control group) at the time of maximal paralysis and assessed daily until day 30."}, "[6]": {"system": "NF-κB signalling (IκB-α)", "experiment": "Western blot of IκB-α in T cells (NF-κB activation)", "assay_type": "cell-based, mouse (SJL/J)", "details": "T cells treated with murine aPC, cell activation assay", "experimental": "Western blot analysis. For NF-κB activation, total cell lysate from purified T cells treated with aPC were analyzed by SDS-PAGE, transferred to PVDF membrane, probed with antibodies against IκB-α, and β-actin and the signal was visualized by enhanced chemiluminescence."}, "[7]": {"system": "splenocytes and lymph node cells", "experiment": "In vitro proliferation (3H-thymidine) of splenocytes and lymph node cells from treated EAE mice, activated with PLP peptide", "assay_type": "cell-based, mouse (SJL/J)", "experimental": "(§1) In vitro immune cell proliferation and cytokine analysis were performed as previously described (Ousman et al. (2007) Nature 448, 474-9). Briefly, splenocytes and lymph node cells harvested from EAE experiments were cultured in flat-bottomed, 96-well plates at a concentration of 0.5×10^6 cells/well in stimulation media (RPMI 1640 supplemented with 2 mM L-glutamine, 1 mM sodium pyruvate, 0.1 mM non-essential amino acids, 100 U/ml^2 Penicillin, 0.1 mg/ml^2 streptomycin, 0.5 μM 2-mercaptoethanol and 10% fetal calf serum) and activated with PLP139-151 peptide (5-20 μg/ml). To determine proliferation rates, cultures were pulsed with (^3H)-Thymidine (1 μCi per well) following 72-hour culture and harvested 18 hours later onto filter paper. The counts per minute (cpm) of incorporated ^3H-Thymidine were read using a beta counter. Cytokine levels (IL-2, IL-4, IL-6, IL-10, IL-12p40, IL-17, IFN-γ, TNF) were measured from the supernatant of cultured cells using anti-mouse OPTEIA ELISA kits (BD Pharmigen)."}, "[8]": {"system": "brain and spinal cord of EAE mice", "experiment": "Quantitative histopathology: inflammatory foci in brain and spinal cord of EAE mice", "assay_type": "in vivo, mouse (SJL/J)", "experimental": "For histopathological analysis, brains and spinal cord of EAE mice were fixed in 10% formaldehyde. […] paraffin sections were stained with LFB and H&E and the number of inflammatory foci within the brain and spinal cord were quantified by a neuropathologist who was blinded to the treatment and clinical parameters of the mice."}, "[9]": {"system": "splenocytes and lymph node cells", "experiment": "Cytokine production (ELISA) of splenocytes and lymph node cells from treated EAE mice", "assay_type": "cell-based, mouse (SJL/J)", "experimental": "as §1"}, "[10]": {"system": "purified T cells", "experiment": "Purified T cell activation with CD3/CD28, cytokine ELISA", "assay_type": "cell-based, mouse (SJL/J)", "details": "30 nM recombinant murine aPC pre-treatment, CD3/CD28 5 μg/ml", "experimental": "In vitro Immune cell activation assays and cytokine analysis. T lymphocytes were isolated from pooled splenocytes and lymph node cells from 8 week-old naïve SJL/J mice by negative selection (Pan T cell isolation kit, Miltenyi Biotech). Cells were pre-treated with 30 nM recombinant murine aPC for 15 mins at 37° C. followed by activation with CD3/CD28 (5 μg/ml) coated on 12 well plates. Cells were cultured at 5×10^6 cells/ml concentration in stimulation media. Culture plates were harvested at different time points (15 min-96 hours) and cytokine levels were measured from culture supernatant by ELISA."}, "[11]": {"system": "primary astrocytes", "experiment": "Primary astrocyte activation with LPS, cytokine ELISA", "assay_type": "cell-based, mouse (SJL/J)", "details": "30 nM recombinant murine aPC pre-treatment, LPS 100 ng/ml", "experimental": "Astrocyte culture. Astrocytes were cultured from brain of one-day-old SJL/J pups as described previously. Briefly, the cerebral cortices from pups were minced, cells were disrupted by passing through a filter and cultured in complete DMEM. Purified astrocytes (50-80% confluent) were treated with 30 nM recombinant murine aPC for 15 minutes and activated with 100 ng/ml LPS (Sigma). Cells were harvested at 4, 24, 48 and 72-hours, and supernatant were analyzed by ELISA for cytokine production."}, "[12]": {"system": "primary peritoneal macrophages", "experiment": "Peritoneal macrophage activation with LPS, cytokine ELISA", "assay_type": "cell-based, mouse (SJL/J)", "details": "30 nM recombinant murine aPC pre-treatment, LPS 100 ng/ml", "experimental": "Primary peritoneal macrophages were isolated from naïve 8-9 weeks old SJL/J mice following intraperitoneal injection of thioglycollate (BD Diagnostic Systems) and cultured in complete medium (DMEM supplemented with 10% fetal bovine serum, 1 mM sodium pyruvate, […] and 0.1 mg/ml streptomycin). Cells (1×10^6 cells/ml) were treated with 30 nM recombinant murine aPC for 15 minutes, then activated with LPS 100 ng/ml (Sigma), harvested at different time points (15 min-72 hours), and cytokine levels were measured."}, "[13]": {"experiment": "Anti-hirudin antibodies in serum of treated EAE mice", "assay_type": "in vivo, mouse", "details": "EAE mice treated with hirudin"}, "[14]": {"details": "cells from aPC-treated vs PBS-treated mice"}, "[15]": {"details": "cells from hirudin-treated vs vehicle-treated mice"}, "[16]": {"details": "hirudin 10 mg/kg daily i.v. from peak of disease"}}}
{"compound": "CN(Cc1cnc2nc(N)nc(N)c2n1)c1ccc(C(=O)N[C@@H](CCC(=O)O)C(=O)O)cc1", "note": "[MTX, Methotrexate]", "values": [{"measurement": "patients having some response", "setting": "[1]", "value": 70, "unit": "%"}, {"measurement": "onset of action", "setting": "[1]; patients", "value": "4-6 weeks"}]}
{"compound": "Heparin", "values": [{"measurement": "symptoms", "setting": "[2]", "value": "improve symptoms"}]}
{"compound": "aPC-K193E: recombinant human aPC mutant; mainly participates in PAR-1 signalling and lacks anticoagulant activities", "values": [{"measurement": "PAR-1 signalling (in words)", "setting": "[3]", "value": "mainly participates in PAR-1 signalling"}, {"measurement": "anticoagulant properties (in words)", "setting": "[4]", "value": "lacks anticoagulant activities"}, {"measurement": "aPTT (relative activity)", "setting": "[4]", "value": 0.03}, {"measurement": "clinical status (mean clinical score), time of amelioration", "setting": "[5]", "value": "significant amelioration early in the disease course (days 20-25)"}]}
{"compound": "aPC-L8W: recombinant human aPC mutant; retains anticoagulant properties but lacks PAR-1 signalling, defective EPCR interaction at L8", "values": [{"measurement": "PAR-1 signalling (in words)", "setting": "[3]", "value": "lacks PAR-1 signalling"}, {"measurement": "anticoagulant properties (in words)", "setting": "[4]", "value": "retains anticoagulant properties"}, {"measurement": "aPTT (relative activity)", "setting": "[4]", "value": 1}, {"measurement": "clinical status (mean clinical score), time of amelioration", "setting": "[5]", "value": "significant amelioration early in the disease course (days 20-25)"}]}
{"compound": "aPC-WT: recombinant human activated protein C wild type", "values": [{"measurement": "clinical status (mean clinical score), time of amelioration", "setting": "[5]", "value": "improvement in the latter part of disease course (days 25-30)"}]}
{"compound": "aPC: recombinant murine activated protein C, provided by Lilly Research Laboratories", "values": [{"measurement": "IκB breakdown", "setting": "[6]", "value": "less IκB breakdown"}, {"measurement": "immune cell proliferation in splenocytes and lymph node cells", "setting": "[7]; [14]", "value": "decreased immune cell proliferation"}, {"measurement": "inflammatory foci in the CNS tissue", "setting": "[8]; aPC-treated vs PBS", "value": "fewer inflammatory foci"}, {"measurement": "Th1 and Th17 cytokines", "setting": "[9]; [14]", "value": "inhibition"}, {"measurement": "IL17 levels", "setting": "[10]", "value": "low levels"}, {"measurement": "IL6 production", "setting": "[11]", "value": "less"}, {"measurement": "IL17 production", "setting": "[11]", "value": "less"}, {"measurement": "relapse rates", "setting": "[5]; recombinant murine aPC 0.2 mg/kg", "value": "no effect"}, {"measurement": "disease severity (mean clinical score)", "setting": "[5]; recombinant murine aPC 0.2 mg/kg daily i.v. from peak of disease vs PBS", "value": "significant amelioration of disease severity"}, {"measurement": "IL6 production", "setting": "[12]", "value": "less"}, {"measurement": "IL17 production", "setting": "[12]", "value": "less"}]}
{"compound": "hirudin: thrombin inhibitor hirudin (Refludan, recombinant lepirudin, Berlex)", "values": [{"measurement": "immune cell proliferation", "setting": "[7]; cells from hirudin-treated vs PBS-treated mice, PLP activated", "value": "decreased immune cell proliferation"}, {"measurement": "inflammatory foci in brains and spinal cords", "setting": "[8]; hirudin-treated vs PBS", "value": "fewer inflammatory foci"}, {"measurement": "IL4 production", "setting": "[9]; [15]", "value": "no differences"}, {"measurement": "IL-6 production", "setting": "[9]; [15]", "value": "suppression"}, {"measurement": "IL-10 production", "setting": "[9]; [15]", "value": "no differences"}, {"measurement": "IL-12 production", "setting": "[9]; [15]", "value": "no differences"}, {"measurement": "IL-17 production", "setting": "[9]; [15]", "value": "suppression"}, {"measurement": "interferon-γ (IFN-γ) production", "setting": "[9]; [15]", "value": "no differences"}, {"measurement": "tumor necrosis factor (TNF) production", "setting": "[9]; [15]", "value": "suppression"}, {"measurement": "disease course", "setting": "[5]; [16]", "value": "no effect"}, {"measurement": "relapse rates", "setting": "[5]; [16]", "value": "no effect"}, {"measurement": "disease severity (mean clinical score)", "setting": "[5]; hirudin 10 mg/kg daily i.v. from peak of disease vs PBS", "value": "dramatic improvement of disease severity"}, {"measurement": "time up to which amelioration of EAE was observed", "setting": "[5]; hirudin treatment", "value": "≤ 35", "unit": "days"}, {"measurement": "anti-hirudin antibodies in serum", "setting": "[13]", "value": "presence of anti-hirudin antibodies"}]}
